Test results from ChEMBL document CHEMBL1909046, “DrugMatrix in vitro pharmacology data”.

Key:
[1] = DRUGMATRIX: Imidazoline I2, Central radioligand binding (ligand: [3H] Idazoxan); format: cell membranes, Rattus norvegicus, Wistar, Cerebral cortex, Membrane; settings: Not Active = under 50% inhibition at 10 µM
[2] = molecular target: Beta-3 adrenergic receptor (Homo sapiens, UniProt P13945); assay: DRUGMATRIX: Adrenergic beta3 radioligand binding (ligand: [125I] Cyanopindolol); format: cell membranes, Membrane; settings: hek293; Not Active = under 50% inhibition at 10 µM
Sequence of Beta-3 adrenergic receptor (P13945 whole entry): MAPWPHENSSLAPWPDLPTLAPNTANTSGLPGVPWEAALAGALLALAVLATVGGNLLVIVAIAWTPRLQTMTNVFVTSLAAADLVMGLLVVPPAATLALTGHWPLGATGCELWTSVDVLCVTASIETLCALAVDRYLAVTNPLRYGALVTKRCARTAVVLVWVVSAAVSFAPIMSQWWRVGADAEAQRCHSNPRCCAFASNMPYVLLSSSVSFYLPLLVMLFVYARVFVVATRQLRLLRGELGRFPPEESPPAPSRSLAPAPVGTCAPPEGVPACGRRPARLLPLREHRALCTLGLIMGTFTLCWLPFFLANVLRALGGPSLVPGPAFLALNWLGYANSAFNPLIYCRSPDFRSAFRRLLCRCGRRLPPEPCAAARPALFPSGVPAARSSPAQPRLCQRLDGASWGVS

[3] = DRUGMATRIX: Potassium Channel [KATP] radioligand binding (ligand: [3H] Glyburide); format: cell membranes, Membrane; settings: hit-t15, Not Active = under 50% inhibition at 10 µM
[4] = DRUGMATRIX: ATPase, Na+/K+ enzyme inhibition (substrate: ATP); format: tissue-based, Sus scrofa, Heart; settings: Not Active = under 50% inhibition at 10 µM
[5] = molecular target: Voltage-gated inwardly rectifying potassium channel KCNH2 (Homo sapiens, UniProt Q12809); settings: hek293; note: in other assays of this panel Not Active means under 50% inhibition at 10 µM
Sequence of Voltage-gated inwardly rectifying potassium channel KCNH2 (Q12809 whole entry): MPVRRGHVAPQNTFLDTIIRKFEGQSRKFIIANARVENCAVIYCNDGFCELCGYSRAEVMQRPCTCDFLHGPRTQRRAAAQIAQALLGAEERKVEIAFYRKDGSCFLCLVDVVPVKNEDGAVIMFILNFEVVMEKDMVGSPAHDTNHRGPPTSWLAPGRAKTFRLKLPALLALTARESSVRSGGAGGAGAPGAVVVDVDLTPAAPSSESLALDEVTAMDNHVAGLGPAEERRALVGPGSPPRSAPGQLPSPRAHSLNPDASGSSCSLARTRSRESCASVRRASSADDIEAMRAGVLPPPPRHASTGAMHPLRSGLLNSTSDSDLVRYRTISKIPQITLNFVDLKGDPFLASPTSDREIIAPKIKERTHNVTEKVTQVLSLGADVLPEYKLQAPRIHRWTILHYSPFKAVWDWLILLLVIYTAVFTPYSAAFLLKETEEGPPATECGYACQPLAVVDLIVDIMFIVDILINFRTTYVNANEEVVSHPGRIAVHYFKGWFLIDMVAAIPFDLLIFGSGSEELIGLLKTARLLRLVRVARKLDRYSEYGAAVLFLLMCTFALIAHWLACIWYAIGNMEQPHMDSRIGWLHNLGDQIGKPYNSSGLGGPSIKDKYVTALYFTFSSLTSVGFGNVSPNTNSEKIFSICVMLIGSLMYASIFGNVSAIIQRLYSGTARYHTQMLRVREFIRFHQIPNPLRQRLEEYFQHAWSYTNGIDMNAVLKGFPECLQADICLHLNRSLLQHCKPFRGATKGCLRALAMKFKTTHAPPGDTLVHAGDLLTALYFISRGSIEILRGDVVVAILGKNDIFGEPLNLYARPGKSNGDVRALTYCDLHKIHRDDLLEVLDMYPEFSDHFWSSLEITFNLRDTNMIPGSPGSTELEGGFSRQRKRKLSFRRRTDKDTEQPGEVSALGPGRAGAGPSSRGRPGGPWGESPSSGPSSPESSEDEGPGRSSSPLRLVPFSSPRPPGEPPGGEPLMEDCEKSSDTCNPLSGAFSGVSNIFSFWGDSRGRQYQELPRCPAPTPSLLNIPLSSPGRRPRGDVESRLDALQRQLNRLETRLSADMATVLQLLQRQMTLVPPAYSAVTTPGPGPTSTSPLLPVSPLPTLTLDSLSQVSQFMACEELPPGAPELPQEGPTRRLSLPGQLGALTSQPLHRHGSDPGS

[6] = molecular target: T1, Vasoactive intestinal polypeptide receptor 1 (Homo sapiens, UniProt P32241); format: cell membranes, Membrane; settings: ht-29; note: in other assays of this panel Not Active means under 50% inhibition at 10 µM
T1 sequence (P32241 whole entry): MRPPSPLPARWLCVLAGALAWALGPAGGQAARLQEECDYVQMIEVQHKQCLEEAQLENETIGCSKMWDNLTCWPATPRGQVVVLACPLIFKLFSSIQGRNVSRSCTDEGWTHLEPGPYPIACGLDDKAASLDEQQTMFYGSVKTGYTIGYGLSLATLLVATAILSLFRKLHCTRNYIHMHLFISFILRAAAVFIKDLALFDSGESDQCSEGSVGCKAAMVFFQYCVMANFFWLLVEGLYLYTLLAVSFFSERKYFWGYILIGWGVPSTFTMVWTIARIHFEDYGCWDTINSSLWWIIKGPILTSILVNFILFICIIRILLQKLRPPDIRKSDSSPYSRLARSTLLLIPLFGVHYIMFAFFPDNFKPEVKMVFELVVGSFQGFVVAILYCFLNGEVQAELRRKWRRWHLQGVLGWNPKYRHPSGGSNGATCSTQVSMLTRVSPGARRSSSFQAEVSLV

[7] = molecular target: Epidermal growth factor receptor (Homo sapiens, UniProt P00533); assay: DRUGMATRIX: Protein Tyrosine Kinase, EGF Receptor enzyme inhibition (substrate: Poly(Glu:Tyr)); format: cell-based, Insect cells; settings: insect cells; Not Active = under 50% inhibition at 10 µM
Sequence of Epidermal growth factor receptor (P00533 whole entry): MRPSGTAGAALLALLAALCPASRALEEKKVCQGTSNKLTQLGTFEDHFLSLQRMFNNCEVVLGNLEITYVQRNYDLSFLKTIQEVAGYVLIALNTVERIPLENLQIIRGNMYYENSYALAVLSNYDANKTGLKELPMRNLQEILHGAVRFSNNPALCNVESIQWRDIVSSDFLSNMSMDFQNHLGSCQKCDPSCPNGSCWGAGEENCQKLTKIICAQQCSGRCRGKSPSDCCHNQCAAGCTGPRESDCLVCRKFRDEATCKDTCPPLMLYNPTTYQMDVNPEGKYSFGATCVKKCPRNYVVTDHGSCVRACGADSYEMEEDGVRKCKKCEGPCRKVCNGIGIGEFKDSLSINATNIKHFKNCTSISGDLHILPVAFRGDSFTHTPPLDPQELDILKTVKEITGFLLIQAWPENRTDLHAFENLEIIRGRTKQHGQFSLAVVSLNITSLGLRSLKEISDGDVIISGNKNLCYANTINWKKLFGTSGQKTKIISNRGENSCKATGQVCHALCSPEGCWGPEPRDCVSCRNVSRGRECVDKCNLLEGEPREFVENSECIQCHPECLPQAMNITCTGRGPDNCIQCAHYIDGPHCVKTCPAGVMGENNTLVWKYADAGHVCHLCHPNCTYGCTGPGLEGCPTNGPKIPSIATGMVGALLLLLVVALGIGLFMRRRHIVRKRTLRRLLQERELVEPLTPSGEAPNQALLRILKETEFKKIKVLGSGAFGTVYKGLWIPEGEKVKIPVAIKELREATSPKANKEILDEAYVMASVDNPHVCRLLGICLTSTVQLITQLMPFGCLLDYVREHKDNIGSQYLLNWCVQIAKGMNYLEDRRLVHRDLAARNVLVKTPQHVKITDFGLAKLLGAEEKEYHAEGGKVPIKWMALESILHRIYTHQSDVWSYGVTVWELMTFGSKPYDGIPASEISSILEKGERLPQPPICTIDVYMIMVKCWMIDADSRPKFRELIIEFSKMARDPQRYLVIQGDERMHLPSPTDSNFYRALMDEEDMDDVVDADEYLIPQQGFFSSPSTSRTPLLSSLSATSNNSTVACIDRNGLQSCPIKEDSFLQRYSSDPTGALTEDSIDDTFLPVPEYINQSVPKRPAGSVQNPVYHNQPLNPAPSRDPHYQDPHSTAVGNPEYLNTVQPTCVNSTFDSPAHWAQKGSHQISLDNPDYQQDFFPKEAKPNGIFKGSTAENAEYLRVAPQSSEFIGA

| SMILES | IC50 [1] | Ki [1] | IC50 [2] | IC50 [3] | Ki [3] | IC50 [4] | Ki [4] | IC50 [5] | Ki [5] | IC50 [6] | IC50 [7] | IC50 ([3]; read-out: IC50) [nM] | Ki ([3]; read-out: Ki) [nM] |
| --- | --- | --- | --- | --- | --- | --- | --- | --- | --- | --- | --- | --- | --- |
| C[C@](O)(CS(=O)(=O)c1ccc(F)cc1)C(=O)Nc1ccc(C#N)c(C(F)(F)F)c1 [(R)-BICALUTAMIDE] | Not Active | Not Active | Not Active | Not Active | Not Active | Not Active | Not Active | Not Active | Not Active | Not Active | Not Active |  |  |
| Cc1nccn1CC1CCc2c(c3ccccc3n2C)C1=O (configuration not stated) [ONDANSETRON] | Not Active | Not Active | Not Active | Not Active | Not Active | Not Active | Not Active | Not Active | Not Active | Not Active | Not Active |  |  |
| CCOC(=O)[C@H](CCc1ccccc1)N[C@H]1CCc2ccccc2N(CC(=O)O)C1=O [BENAZEPRIL] | Not Active | Not Active | Not Active | Not Active | Not Active | Not Active | Not Active | Not Active | Not Active | Not Active | Not Active |  |  |
| CCCCOc1ccc(OCCCN2CCOCC2)cc1 [PRAMOXINE] | Not Active | Not Active | Not Active | Not Active | Not Active | Not Active | Not Active | Not Active | Not Active | Not Active | Not Active |  |  |
| COc1cccc2c1C(=O)c1c(O)c3c(c(O)c1C2=O)C[C@@](O)(C(=O)CO)C[C@@H]3O[C@H]1C[C@H](N)[C@H](O)[C@H](C)O1 [DOXORUBICIN] | Not Active | Not Active | Not Active | Not Active | Not Active | Not Active | Not Active | Not Active | Not Active | Not Active | Not Active |  |  |
| C[C@H]1C[C@H]2[C@@H]3CCC4=CC(=O)C=C[C@]4(C)[C@@]3(Cl)[C@@H](O)C[C@]2(C)[C@@]1(O)C(=O)CO [BECLOMETHASONE] | Not Active | Not Active | Not Active | Not Active | Not Active | Not Active | Not Active | Not Active | Not Active | Not Active | Not Active |  |  |
| CCN(CC)CCOC(=O)c1ccc(N)cc1 [PROCAINE] | Not Active | Not Active | Not Active | Not Active | Not Active | Not Active | Not Active | Not Active | Not Active | Not Active | Not Active |  |  |
| O=C(O)Cc1ccccc1Nc1c(Cl)cccc1Cl [DICLOFENAC] | Not Active | Not Active | Not Active | Not Active | Not Active | Not Active | Not Active | Not Active | Not Active | Not Active | Not Active |  |  |
| CC(C)[C@H]1CC[C@H](C(=O)N[C@H](Cc2ccccc2)C(=O)O)CC1 [NATEGLINIDE] | Not Active | Not Active | Not Active |  |  | Not Active | Not Active | Not Active | Not Active | Not Active | Not Active | 1670 | 189 |
| Nc1c(CC(=O)O)cccc1C(=O)c1ccc(Br)cc1 [BROMFENAC] | Not Active | Not Active | Not Active | Not Active | Not Active | Not Active | Not Active | Not Active | Not Active | Not Active | Not Active |  |  |
| CC(=O)Nc1cccc(O)c1 [METACETAMOL] | Not Active | Not Active | Not Active | Not Active | Not Active | Not Active | Not Active | Not Active | Not Active | Not Active | Not Active |  |  |
| COc1ccc2c(c1)c(CC(=O)O)c(C)n2C(=O)c1ccc(Cl)cc1 [INDOMETHACIN] | Not Active | Not Active | Not Active | Not Active | Not Active | Not Active | Not Active | Not Active | Not Active | Not Active | Not Active |  |  |
